This is an account of results in patent US6265423A, “Aromatic polycyclic retinoid-type derivatives, method for preparing same, and use thereof for making pharmaceutical and cosmetic compositions” (priority 1996, dated 2001).

“Also recorded” adds a separate entry of the source.

The conditions of data set [1]: cited from earlier work.
The subject of data set [2] is RAR and RXR receptors. The experiment in a line: RAR/RXR activity profile drawn from the models. It is filed as cell-based. The text has this:
The reference molecules have allowed one to show the effectiveness and the complementary nature of the different models used and lead to the following conclusions: chimerical constructions GAL-RAR and RAR-ERcassette allow the determination of the RAR agonist profile of molecules, but also an RXR agonist activity with RAR-ERcassette, the HRLN lineage mainly conveys the activity of a compound mediated by endogenic RARα, the HRL+N lineage also provides evidence of an RXR agonist activity of the retinoids, the anti-oestrogenic effect of the retinoids (oestrogen-induced cellular proliferation and MELN lineage) is mediated by RARα, the anti-AP-1 effect is mediated in the MCF-7 cells (MTLN lineage) by RARα, RARγ and RXRα, and an additive effect exists between the RAR and RXR routes.

In data set [3] the test system is T-47D lineage. The experiment in a line: SAMBA image analysis test. In kind it is cell-based, human. The text has this: The molecules which have shown themselves to be the most interesting in the MTT test have been evaluated in an image analysis test called SAMBA. In effect, the recent advances in the field of image analysis have allowed new approaches to the evaluation of different cellular kinetic parameters and the measurement of the distribution of chromatin. The data thereby provided are processed using different statistical tests.
The use of the Systeme d'Analyses Microscopiques a Balayage Automatique 2005 (SAMBA 2005, Alcatel TITN, France), (System of Microscopic Analyses with Automatic Sweep 2005) permits measurement of the influence of the compounds researched at three levels:
The cells in exponential growth are cultured on small glass slip plates (Kiss R. et al. Eur. J. Cancer, 27, 1268-1274, 1991) at the rate of from […] cells/ml (depending on the cellular line being considered) in 3 ml of minimum essential medium (MEM, Gibco). […]
The interest in the Feulgen coloration resides in the possibility of colouring the DNA in a specific and stoichiometric fashion (Giroud F., Cell, 44, 177-188, 1982; Kiss R. et al., J. Histochem. Cytochem., 41, 6, 935-945, 1993). For each experimental condition, 900 nuclei are analysed by the image analyser. […]
These 15 parameters are calculated by specific software, from: […]

Data set [4] relates to ZR-75-1, T-47D, A549 and A-427 lineages. The experiment in a line: MTT test, tumour cell lines overall. It is filed as cell-based, human.
Description: This test is based on the mitochondrial reduction by living metabolically active cells of the MTT (3-(4,5-dimethylthiazol-2-yl)-2,5-diphenyltetrazolium bromide) of yellowish colour into a blue coloured product, formazan. The quantity of formazan obtained is directly proportional to the number of living cells. After incubation of the cells for 24 hours in microplates with 96 flat bottomed wells, the culture medium is replaced by 100 μl of fresh culture medium containing the drug to be tested.
The microplates are then incubated for 3 hours at 37° C. and centrifuged for 10 minutes at 400 g (GPR centrifuge, Beckman). The MTT solution is replaced by 100 μl of dimethylsulphoxide (Merck). The microplates are agitated (Vari-Shaker, Dynatech) for 10 minutes.
In the microplates, the control cells like the treated cells were incubated in a medium without the compounds to be tested for 24 hours. The control cells are incubated in a medium without a drug throughout the whole experiment, while the treated cells are incubated in different media. These media contain the molecule to be tested at various concentrations: 10^-8 M, 10^-6 M and 10^-4 M. All the tests are carried out in 6 duplicates.
In data set [5] the test system is MCF-7 cells. Put plainly: Effect on oestrogen-induced proliferation of MCF-7 cells. As to conditions: estradiol 10^-9 M. It is filed as cell-based, human.
Description: MCF-7 cells and HeLa are cultivated in DMFM with phenol red to which 5% foetal calf serum is added. […] The experimental tests are carried out in DMEM without phenol red to which foetal calf serum treated with dextran carbon is added at 3%. […] The experiments using the different retinoids are carried out sheltered from the light so as to avoid any isomerisation.
So as to test the anti-proliferation effect of the retinoids, growth experiments under oestrogenic conditions were carried out on cells MCF-7 and T-47D. These are the human oestrogen-dependent mammary cancer cells which express the receptor to RE oestrogens. The effect of the molecules is evaluated after 7 days of culture in oestrogenic conditions (estradiol 10^-9 M) by dosing the cellular DNA. The cells are distributed in 24 well plates at a density of 2×10^4 cells per well. The tests with the different retinoids are carried out in triplicate and the culture medium is changed after 4 days of growth.

With `CC1=C(/C=C/C(C)=C/C=C/C(C)=C/C(=O)O)C(C)(C)CCC1` [CB16178, all-trans retinoic acid, reference compound], the “metabolism (in words)” value in data set [1] (chronic treatment) is “an inducer of its own metabolism”. In addition, in data set [1], the “adverse effects in chronic treatment (in words)” value was “powerful effect of hypervitaminose, of mucocutaneous toxicity and of teratogenecity”. `C/C(=C/c1ccc2c(c1)C(C)(C)CCC2(C)C)c1ccc(C(=O)O)nc1` [CB16279, (Z) 5-[1-(5,6,7,8-tetrahydro-5,5,8,8-tetramethyl-2-naphthalenyl)-2-propenyl]pyridinyl-2-carboxylic acid]: the “RAR/RXR activity profile (in words)” value in data set [2] is “panagonistic”. On to `CC1(C)CCC(C)(C)c2cc(/C=C(\c3ccc(C(=O)O)cc3)C(F)(F)F)ccc21` [CB36493, (E) 4-[1-trifluoromethyl-2-(5,6,7,8-tetrahydro-5,5,8,8-tetramethyl-2-naphthalenyl)-1-ethenyl]benzoic acid], for which the “RAR/RXR activity profile (in words)” value in data set [2] is recorded as “panagonistic”. For the compound `C/C(=C/c1ccc2c(c1)C(C)(C)CCC2(C)C)c1ccc(C(=O)O)cn1` [CB38416, (Z) 2-[1-(5,6,7,8-tetrahydro-5,5,8,8-tetramethyl-2-naphthalenyl)-2-propenyl]pyridinyl-5-carboxylic acid], the “RAR/RXR activity profile (in words)” value in data set [2] was “panagonistic”.

As for `CC1(C)CCC(C)(C)c2cc(/C=C(\c3ccc(-c4nnn[nH]4)cc3)C(F)(F)F)ccc21` [CB77402, (E) 5-[4-[1-trifluoromethyl-2-(5,6,7,8-tetrahydro-5,5,8,8-tetramethyl-2-naphthalenyl)-1-ethenyl]phenyl]-1H-tetrazole], the “RAR/RXR activity profile (in words)” value in data set [2] is “RXR specific activity”. As to `C/C(=C/c1ccc2c(c1)C(C)(C)CCC2(C)C)c1ccc(-c2nnn[nH]2)cc1` [CB92834], in data set [2], the “RAR/RXR activity profile (in words)” value is recorded as “RXR specific activity”. In addition, in data set [3], the “morphonuclear / anti-tumoral effect (in words)” value is “not linked to a cytotoxic effect; also recorded: mediated by an activation of the cellular death and/or an inhibition of the proliferation due to the induction of the cellular differentiation”. Moreover, the “inhibition of the cellular lineages (in words)” value in data set [4] was “as active on the MTT test as the reference products tested; also recorded: more active on the oestrogen-sensitive lineages such as the mammary lineages ZR-75-1 and T-47D than on the pulmonary lineages”. `C/C(=C\c1ccc(C(=O)O)cc1)c1ccc2c(c1)C(C)(C)CCC2(C)C` [TTNPB, reference compound]: the “morphonuclear / anti-tumoral effect (in words)” value in data set [3] is “strongly suggests a direct correlation between the cytotoxic effect of the molecule and its anti-tumoral activity; also recorded: exercises its anti-tumoral activity through a direct cytotoxic (cytocidal) effect”. Further, the “inhibition of the cellular lineages (in words)” value in data set [4] is reported as “induces the strongest inhibition of the cellular lineages”. The “effect on oestrogen-induced growth, MCF-7 (in words)” value in data set [5] was “stronger inhibiting effect than the natural ligands (all-trans RA and 9-cis RA) and than LGD1069”.
